This experiment addresses T1, human leucocyte elastase (HLE) (Homo sapiens, UniProt P08246).
T1 sequence (P08246 30-267): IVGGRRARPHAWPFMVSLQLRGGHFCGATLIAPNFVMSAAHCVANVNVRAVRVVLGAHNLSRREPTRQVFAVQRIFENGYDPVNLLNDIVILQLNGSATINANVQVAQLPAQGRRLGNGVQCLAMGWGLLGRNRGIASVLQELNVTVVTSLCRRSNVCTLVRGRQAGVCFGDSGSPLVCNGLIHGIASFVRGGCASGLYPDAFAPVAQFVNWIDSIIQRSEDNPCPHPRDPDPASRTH
Nature of the experiment: Anti-elastasic activity ex vivo on frozen sections of human gums (elastic fibres remaining, morphometric quantification by image analysis). It is filed as biochemical. To be noted: HLE + PMSF, HLE 10 μm/ml, two hours. On the procedure:
The purpose of this study is therefore to study the anti-elastasic activity of an extract as defined above, alone or in combination with ceramides. This activity is evaluated on sections of human gums.
The ceramides used, of vegetable origin, are obtained according to a process as described in Patent FR 2676936 incorporated by way of reference, a process which comprises exctraction from wheat, using a polar extraction solvent followed by recrystallization from an organic solvent. They are essentially composed of glucosylceramides and ceramides.
For this purpose, the elastic fibre network is subjected to human leucocyte elastase (HLE), with or without an anti-elastasic product. The elastic fibres remaining after enzymatic action are stained with (+) catechin.
Frozen sections of 8 μm are carried out from 5 samples obtained from biopsies of normal buccal mucosa, taken during dental extractions.
In a first stage, the concentration in human leucocyte elastase required for the destruction of elastic fibres is determined: leucocyte elastase is applied to the skin sections for two hours at ambient temperature and in a humid atmosphere; after fixing in acetone and dehydration in ethanol at […], the remaining elastic fibres are stained with (+) catechin. Total destruction of the elastic fibres is obtained in the presence of 10 μm/ml of human leucocyte elastase.
The anti-elastasic activity of the products is compared with that of (PMSF), a powerful elastase inhibitor.

Take `O=S(=O)(F)Cc1ccccc1` [PMSF]: the “% of elastic fibres remaining after treatment with human leucocyte elastase” value (shortened to “% of elastic fibres remaining”) (lower corium dermis) was found to be 70%, the “% of elastic fibres remaining” value (medium corium dermis) stood at 55% and the “% of elastic fibres remaining” value (upper corium dermis) is on record as 25%.

The values above are taken from US6818208B2, “Use of a flavonoid extract of ginkgo biloba substantially devoid of terpenes, in the dentibuccal field, and composition containing such extract” (Societe de Conseils de Recherches et d'Applications …, priority 1996, dated 2004).
